Test results as given in ChEMBL document CHEMBL4396937, “Synthesis of new triazole fused imidazo[2,1-b]thiazole hybrids with emphasis on Staphylococcus aureus virulence factors” (Bioorg Med Chem Lett, 2019).
In brackets after ≈: the same amount, converted by molar mass. Activity calls are given as the source filed them. The calls are words filed in the database; no cut-off is given here.

Tests used:
Format in all cases: functional
Candida albicans [1] = test: Antifungal activity against Candida albicans MTCC 3017 assessed as reduction in fungal growth incubated for 24 hrs by agar well diffusion method; conditions: MTCC 3017, 24 h
Micrococcus luteus [2] = test: Antibacterial activity against Micrococcus luteus MTCC 2470 assessed as reduction in bacterial growth incubated for 24 hrs by agar well diffusion method
Escherichia coli [3] = test: Bactericidal activity against Escherichia coli MTCC 739 assessed as reduction in bacterial survival incubated for 24 hrs followed by transfer of microbial suspension to agar plates and measured at 24 hrs post transfer by agar well diffusion method
Bacillus subtilis [4] = test: Bactericidal activity against Bacillus subtilis MTCC 121 assessed as reduction in bacterial survival incubated for 24 hrs followed by transfer of microbial suspension to agar plates and measured at 24 hrs post transfer by agar well diffusion method
Staphylococcus aureus [5] = test: Bactericidal activity against Staphylococcus aureus MLS-16 MTCC 2940 assessed as reduction in bacterial survival incubated for 24 hrs followed by transfer of microbial suspension to agar plates and measured at 24 hrs post transfer by agar well diffusion method
Raoultella planticola [6] = test: Antibacterial activity against Klebsiella planticola MTCC 530 assessed as reduction in bacterial growth incubated for 24 hrs by agar well diffusion method
Pseudomonas aeruginosa [7] = test: Bactericidal activity against Pseudomonas aeruginosa MTCC 2453 assessed as reduction in bacterial survival incubated for 24 hrs followed by transfer of microbial suspension to agar plates and measured at 24 hrs post transfer by agar well diffusion method
Raoultella planticola [8] = test: Bactericidal activity against Klebsiella planticola MTCC 530 assessed as reduction in bacterial survival incubated for 24 hrs followed by transfer of microbial suspension to agar plates and measured at 24 hrs post transfer by agar well diffusion method
Staphylococcus aureus [9] = test: Antibacterial activity against Staphylococcus aureus MLS-16 MTCC 2940 assessed as reduction in bacterial growth incubated for 24 hrs by agar well diffusion method
Pseudomonas aeruginosa [10] = test: Antibacterial activity against Pseudomonas aeruginosa MTCC 2453 assessed as reduction in bacterial growth incubated for 24 hrs by agar well diffusion method
Candida albicans [11] = test: Fungicidal activity against Candida albicans MTCC 3017 assessed as reduction in fungal survival incubated for 24 hrs followed by transfer of microbial suspension to agar plates and measured at 24 hrs post transfer by agar well diffusion method; conditions: MTCC 3017, 24 h
Escherichia coli [12] = test: Antibacterial activity against Escherichia coli MTCC 739 assessed as reduction in bacterial growth incubated for 24 hrs by agar well diffusion method
Bacillus subtilis [13] = test: Antibacterial activity against Bacillus subtilis MTCC 121 assessed as reduction in bacterial growth incubated for 24 hrs by agar well diffusion method
Staphylococcus aureus [14] = test: Bactericidal activity against Staphylococcus aureus MTCC 96 assessed as reduction in bacterial survival incubated for 24 hrs followed by transfer of microbial suspension to agar plates and measured at 24 hrs post transfer by agar well diffusion method
Micrococcus luteus [15] = test: Bactericidal activity against Micrococcus luteus MTCC 2470 assessed as reduction in bacterial survival incubated for 24 hrs followed by transfer of microbial suspension to agar plates and measured at 24 hrs post transfer by agar well diffusion method
Staphylococcus aureus [16] = test: Antibacterial activity against Staphylococcus aureus MTCC 96 assessed as reduction in bacterial growth incubated for 24 hrs by agar well diffusion method

Structure (SMILES) | MIC (Candida albicans [1]) | MIC (Micrococcus luteus [2]; MTCC 2470, 24 h) | MIC (Staphylococcus aureus [9]; MLS-16 MTCC 2940, 24 h) | MIC (Pseudomonas aeruginosa [10]; MTCC 2453, 24 h) | MIC (Escherichia coli [12]; MTCC 739, 24 h) | MIC (Bacillus subtilis [13]; MTCC 121, 24 h) | MIC (Staphylococcus aureus [16]; MTCC 96, 24 h) | MBC (Escherichia coli [3]; MTCC 739, 24 h) | MBC (Bacillus subtilis [4]; MTCC 121, 24 h) | MBC (Staphylococcus aureus [5]; MLS-16 MTCC 2940, 24 h) | MIC (Raoultella planticola [6]; MTCC 530, 24 h) | MBC (Pseudomonas aeruginosa [7]; MTCC 2453, 24 h) | MBC (Raoultella planticola [8]; MTCC 530, 24 h) | MFC (Candida albicans [11]) | MBC (Staphylococcus aureus [14]; MTCC 96, 24 h) | MBC (Micrococcus luteus [15]; MTCC 2470, 24 h) | further results
O=C(c1cn(-c2ccc(F)cc2)nn1)c1c(-c2ccc(Cl)cc2)nc2sccn12 | 15.6 µg/mL (≈ 36.8 µM) | 3.9 µg/mL (≈ 9.2 µM) | 7.8 µg/mL (≈ 18.4 µM) | > 125 µg/mL | > 125 µg/mL | 3.9 µg/mL (≈ 9.2 µM) | 3.9 µg/mL (≈ 9.2 µM) | > 125 µg/mL | 7.8 µg/mL (≈ 18.4 µM) | 15.6 µg/mL (≈ 36.8 µM) | 7.8 µg/mL (≈ 18.4 µM) | > 125 µg/mL | 15.6 µg/mL (≈ 36.8 µM) | > 125 µg/mL | 7.8 µg/mL (≈ 18.4 µM) | 7.8 µg/mL (≈ 18.4 µM) | 
COc1ccc(-c2nc3sccn3c2C(=O)c2cn(-c3ccc(C(F)(F)F)cc3)nn2)cc1 | 7.8 µg/mL (≈ 16.6 µM) | 7.8 µg/mL (≈ 16.6 µM) | 15.6 µg/mL (≈ 33.2 µM) | > 125 µg/mL | > 125 µg/mL | 15.6 µg/mL (≈ 33.2 µM) | 15.6 µg/mL (≈ 33.2 µM) | > 125 µg/mL | 31.2 µg/mL (≈ 66.5 µM) | 31.2 µg/mL (≈ 66.5 µM) | > 125 µg/mL | > 125 µg/mL | > 125 µg/mL | 15.6 µg/mL (≈ 33.2 µM) | 31.2 µg/mL (≈ 66.5 µM) | 15.6 µg/mL (≈ 33.2 µM) | 
O=C(c1cn(-c2ccc(C(F)(F)F)cc2)nn1)c1c(-c2ccccc2)nc2sccn12 | 15.6 µg/mL (≈ 35.5 µM) | 3.9 µg/mL (≈ 8.88 µM) | 7.8 µg/mL (≈ 17.8 µM) | > 125 µg/mL | > 125 µg/mL | 3.9 µg/mL (≈ 8.88 µM) | 3.9 µg/mL (≈ 8.88 µM) | > 125 µg/mL | 7.8 µg/mL (≈ 17.8 µM) | 15.6 µg/mL (≈ 35.5 µM) | > 125 µg/mL | > 125 µg/mL | > 125 µg/mL | 31.2 µg/mL (≈ 71 µM) | 7.8 µg/mL (≈ 17.8 µM) | 7.8 µg/mL (≈ 17.8 µM) | 
O=C(c1cn(-c2ccc(C(F)(F)F)cc2)nn1)c1c(-c2ccc(Cl)cc2)nc2sccn12 | 15.6 µg/mL (≈ 32.9 µM) | > 125 µg/mL | > 125 µg/mL | > 125 µg/mL | > 125 µg/mL | 15.6 µg/mL (≈ 32.9 µM) | > 125 µg/mL | > 125 µg/mL | 31.2 µg/mL (≈ 65.8 µM) | > 125 µg/mL | > 125 µg/mL | > 125 µg/mL | > 125 µg/mL | 15.6 µg/mL (≈ 32.9 µM) | > 125 µg/mL | > 125 µg/mL | 
O=C(c1cn(-c2ccc(F)cc2)nn1)c1c(-c2ccccc2)nc2sccn12 | 15.6 µg/mL (≈ 40.1 µM) | > 125 µg/mL | > 125 µg/mL | > 125 µg/mL | > 125 µg/mL | 7.8 µg/mL (≈ 20 µM) | > 125 µg/mL | > 125 µg/mL | 15.6 µg/mL (≈ 40.1 µM) | > 125 µg/mL | > 125 µg/mL | > 125 µg/mL | > 125 µg/mL | 31.2 µg/mL (≈ 80.1 µM) | > 125 µg/mL | > 125 µg/mL | 

More lines, in order of falling MIC (Candida albicans [1]), values ahead:

MIC (Candida albicans [1]) | MIC (Micrococcus luteus [2]; MTCC 2470, 24 h) | MIC (Staphylococcus aureus [9]; MLS-16 MTCC 2940, 24 h) | MIC (Pseudomonas aeruginosa [10]; MTCC 2453, 24 h) | MIC (Escherichia coli [12]; MTCC 739, 24 h) | MIC (Bacillus subtilis [13]; MTCC 121, 24 h) | MIC (Staphylococcus aureus [16]; MTCC 96, 24 h) | Structure (SMILES) | MBC (Escherichia coli [3]; MTCC 739, 24 h) | MBC (Bacillus subtilis [4]; MTCC 121, 24 h) | MBC (Staphylococcus aureus [5]; MLS-16 MTCC 2940, 24 h) | MIC (Raoultella planticola [6]; MTCC 530, 24 h) | MBC (Pseudomonas aeruginosa [7]; MTCC 2453, 24 h) | MBC (Raoultella planticola [8]; MTCC 530, 24 h) | MFC (Candida albicans [11]) | MBC (Staphylococcus aureus [14]; MTCC 96, 24 h) | MBC (Micrococcus luteus [15]; MTCC 2470, 24 h) | further results
15.6 µg/mL (≈ 33.8 µM) | 3.9 µg/mL (≈ 8.45 µM) | 7.8 µg/mL (≈ 16.9 µM) | > 125 µg/mL | > 125 µg/mL | 3.9 µg/mL (≈ 8.45 µM) | 3.9 µg/mL (≈ 8.45 µM) | COc1cc(-n2cc(C(=O)c3c(-c4ccccc4)nc4sccn34)nn2)cc(OC)c1OC | > 125 µg/mL | 7.8 µg/mL (≈ 16.9 µM) | 15.6 µg/mL (≈ 33.8 µM) | 31.2 µg/mL (≈ 67.6 µM) | > 125 µg/mL | 62.5 µg/mL (≈ 135 µM) | 31.2 µg/mL (≈ 67.6 µM) | 7.8 µg/mL (≈ 16.9 µM) | 7.8 µg/mL (≈ 16.9 µM) | 
7.8 µg/mL (≈ 17.9 µM) | 3.9 µg/mL (≈ 8.95 µM) | 7.8 µg/mL (≈ 17.9 µM) | > 125 µg/mL | > 125 µg/mL | 3.9 µg/mL (≈ 8.95 µM) | 3.9 µg/mL (≈ 8.95 µM) | COc1ccc(-n2cc(C(=O)c3c(-c4ccc(Cl)cc4)nc4sccn34)nn2)cc1 | > 125 µg/mL | 7.8 µg/mL (≈ 17.9 µM) | 15.6 µg/mL (≈ 35.8 µM) | 3.9 µg/mL (≈ 8.95 µM) | > 125 µg/mL | 7.8 µg/mL (≈ 17.9 µM) | 15.6 µg/mL (≈ 35.8 µM) | 7.8 µg/mL (≈ 17.9 µM) | 7.8 µg/mL (≈ 17.9 µM) | 
3.9 µg/mL (≈ 9.37 µM) |  |  |  |  |  |  | Clc1ccc(COC(Cn2ccnc2)c2ccc(Cl)cc2Cl)c(Cl)c1 (stereo not drawn) [MICONAZOLE] |  |  |  |  |  |  | 3.9 µg/mL (≈ 9.37 µM) |  |  | MIC (Micrococcus luteus [2]): inactive; MBC (Escherichia coli [3]): inactive; MBC (Bacillus subtilis [4]): inactive; MBC (Staphylococcus aureus [5]): inactive; MIC (Raoultella planticola [6]): inactive; MBC (Pseudomonas aeruginosa [7]): inactive; MBC (Raoultella planticola [8]): inactive; MIC (Staphylococcus aureus [9]): inactive; MIC (Pseudomonas aeruginosa [10]): inactive; MIC (Escherichia coli [12]): inactive; MIC (Bacillus subtilis [13]): inactive; MBC (Staphylococcus aureus [14]): inactive; MBC (Micrococcus luteus [15]): inactive; MIC (Staphylococcus aureus [16]): inactive
